Experimental findings from article PMC10551889 (Bioorganic & medicinal chemistry, 2022) are described below.

Structures are written as SMILES. “Also recorded” adds a separate entry of the source.

One data set deals with M. bovis BCG Pasteur ATCC 35734.
Experiment: not given
The format is cell-based, Mycobacterium bovis BCG.
In the case of `Cc1ccccc1-c1nccnc1C(=O)[O-].[Na+]` [compound 36, Sodium 3-(o-tolyl)pyrazine-2-carboxylate], the “antimycobacterial activity (in words)” value is “completed obliterated activity”.

In the case of `CCN(CC)c1nccnc1C(=O)[O-].[Na+]` [compound 58, Sodium 3-(diethylamino)pyrazine-2-carboxylate], the “antimycobacterial activity (in words)” value is recorded as “loss of activity”.

Turning to `O=C([O-])c1nccnc1N1CCOCC1.[Na+]` [compound 64, Sodium 3-(morpholino)pyrazine-2-carboxylate], the “antimycobacterial activity (in words)” value is recorded as “abolished activity”.

`O=C([O-])c1nccnc1N1CCSCC1.[Na+]` [compound 65, Sodium 3-(thiomorpholino)pyrazine-2-carboxylate]: the “antimycobacterial activity (in words)” value is listed as “abolished activity”.

Regarding `NS(=O)(=O)c1cnccn1` [compound 14], the “antimycobacterial activity (in words)” value was “inactive or weakly active”.

With `O=C([O-])c1cncc(NC(=O)C2CCCCC2)n1.[Na+]` [compound 80, Sodium 6-(cyclohexanecarboxamido)pyrazine-2-carboxylate], the “antimycobacterial activity (in words)” value is “obliterated activity”.

Consider `O=C([O-])c1nccnc1N1CCC2(CC1)CC2.[Na+]` [compound 66, Sodium 3-(6-azaspiro[2,5]octan-6-yl)pyrazine-2-carboxylate], for which the “antimycobacterial activity (in words)” value was “abolished activity”.

For the molecule `O=C([O-])c1cnc(NC2CCC2)cn1.[Na+]` [compound 48, Sodium 5-(cyclobutylamino)pyrazine-2-carboxylate], the “antimycobacterial activity (in words)” value is “Loss of potency”.

As for `c1cnc(-c2nnn[nH]2)cn1` [compound 12, 2-(1H-Tetrazol-5-yl)pyrazine], the “antimycobacterial activity (in words)” value is “inactive or weakly active”.

Regarding `O=C([O-])c1cnc(-c2ccccc2)cn1.[Na+]` [compound 39, Sodium 5-(phenyl)pyrazine-2-carboxylate], the “antimycobacterial activity (in words)” value was “eliminated activity”.

For `O=C([O-])c1nccnc1N1CCCCC1.[Na+]` [compound 63, Sodium 3-(piperidin-1-yl)pyrazine-2-carboxylate], the “antimycobacterial activity (in words)” value is given as “abolished activity”.

For `CC(C)Nc1cnc(C(=O)[O-])cn1.[Na+]` [compound 71, Sodium 5-(2-propylamino)pyrazine-2-carboxylate], the “antimycobacterial activity (in words)” value is on record as “Loss of potency”.

`NC(=S)c1cnccn1` [compound 13]: the “antimycobacterial activity (in words)” value was “inactive or weakly active”.

`Nc1cncc(C(=O)O)n1` [compound 25, 6-amino-POA]: the “antimycobacterial activity (in words)” value is on record as “loss of activity”.

Regarding `CC(=O)c1cnccn1` [compound 16], the “antimycobacterial activity (in words)” value is on record as “eliminated activity”.

In the case of `O=C([O-])c1nccnc1N1CCCC1.[Na+]` [compound 62, Sodium 3-(pyrrolidine-1-yl)pyrazine-2-carboxylate], the “antimycobacterial activity (in words)” value is given as “abolished activity”.

On to `CC(=O)NS(=O)(=O)c1cnccn1` [compound 15, N-(Pyrazin-2-ylsulfonyl)acetamide], for which the “antimycobacterial activity (in words)” value was “inactive or weakly active”.

On to `CCNc1cnc(C(=O)[O-])cn1.[Na+]` [compound 42, Sodium 5-(ethylamino)pyrazine-2-carboxylate], for which the “antimycobacterial activity (in words)” value is on record as “Loss of potency”.

`O=C([O-])c1cncc(-c2ccccc2)n1.[Na+]` [compound 40, Sodium 6-phenylpyrazine-2-carboxylate]: the “fold less potent than POA” value was about 2 fold.

On to `CCCNc1cnc(C(=O)[O-])cn1.[Na+]` [compound 70, Sodium 5-(n-propylamino)pyrazine-2-carboxylate], for which the “antimycobacterial activity (in words)” value is given as “Loss of potency”.

For `CCN(CC)c1cnc(C(=O)[O-])cn1.[Na+]` [compound 73, Sodium 5-(diethylamino)pyrazine-2-carboxylate], the “antimycobacterial activity (in words)” value is “equipotent to the parent POA”.

With `O=C([O-])c1cnc(NC2CCCC2)cn1.[Na+]` [compound 76, Sodium 5-(cyclopentylamino)pyrazine-2-carboxylate], the “antimycobacterial activity (in words)” value was “Loss of potency”.

With `CCCCNc1cnc(C(=O)[O-])cn1.[Na+]` [compound 72, Sodium 5-(n-butylamino)pyrazine-2-carboxylate], the “MIC50 (MIC, concentration that inhibits fifty percent of growth)” value is 400 µM.

A further data set relates to M. bovis BCG mutant POA2 (PanD Leu132Arg).
Experiment: not given
Format: cell-based, Mycobacterium bovis BCG.
On to `Nc1cnc(C(=O)O)cn1` [compound 24], for which the “shift in growth inhibition potency against PanD mutant vs wildtype (in words)” value (from here on “shift in growth inhibition potency”) is recorded as “moderate shift”.

Turning to `O=C([O-])c1nccnc1Nc1ccccc1.[Na+]` [compound 59, Sodium 3-(anilino)pyrazine-2-carboxylate], the “shift in growth inhibition potency” value is reported as “moderate shift”.

On to `CCCNc1nccnc1C(=O)[O-].[Na+]` [compound 54, Sodium 3-(propylamino)pyrazine-2-carboxylate], for which the “shift in growth inhibition potency” value is given as “moderate shift”.

Regarding `Nc1nccnc1C(=O)O` [compound 23], the “shift in growth inhibition potency” value is on record as “minimal shift”.

For the molecule `CC(C)Nc1nccnc1C(=O)[O-].[Na+]` [compound 55, Sodium 3-(2-propylamino)pyrazine-2-carboxylate], the “shift in growth inhibition potency” value is “moderate shift”.

Another data set concerns Vero cells.
Experiment: not given
`CC(C)(C)Nc1nccnc1C(=O)[O-].[Na+]` [compound 56, Sodium 3-(tert-butylamino)pyrazine-2-carboxylate]: the “cytotoxicity at higher concentrations” value is on record as ~ 50%.

The target of the next data set is Mtb PanD (Mycobacterium tuberculosis, UniProt P9WIL3). Briefly: biochemical. The format is binding.
Sequence of Mtb PanD (P9WIL3 25-139): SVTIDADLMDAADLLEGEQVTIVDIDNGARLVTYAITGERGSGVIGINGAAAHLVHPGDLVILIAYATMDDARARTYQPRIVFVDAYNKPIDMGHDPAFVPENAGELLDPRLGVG
Sequence of Mtb PanD (P9WIL3 1-24): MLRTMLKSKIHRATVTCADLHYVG
The molecule `Nc1cnc(C(=O)O)cn1` [compound 24] gave an equilibrium dissociation constant (Kd) of 37 to 47 µM.

Consider `CCN(CC)c1nccnc1C(=O)[O-].[Na+]` [compound 58, Sodium 3-(diethylamino)pyrazine-2-carboxylate], for which the “PanD binding (in words)” value is reported as “no binding; also recorded: did not bind at all; also recorded: did not bind to PanD”.

In turn, `Nc1nccnc1C(=O)O` [compound 23] showed a Kd of 37 to 47 µM.
